# Laboratory results taken from BindingDB's records for doi:10.1016/S1074-5521(99)80048-9 (University of California Berkeley, 1999).
# Biological target: Cyclin-dependent kinase 1 (Homo sapiens, UniProt P06493)
# Experiment: Inhibition Assay
# From the text: Inhibition assay using CDK1/cyclin B.
# Cyclin-dependent kinase 1, sequence (P06493 whole entry): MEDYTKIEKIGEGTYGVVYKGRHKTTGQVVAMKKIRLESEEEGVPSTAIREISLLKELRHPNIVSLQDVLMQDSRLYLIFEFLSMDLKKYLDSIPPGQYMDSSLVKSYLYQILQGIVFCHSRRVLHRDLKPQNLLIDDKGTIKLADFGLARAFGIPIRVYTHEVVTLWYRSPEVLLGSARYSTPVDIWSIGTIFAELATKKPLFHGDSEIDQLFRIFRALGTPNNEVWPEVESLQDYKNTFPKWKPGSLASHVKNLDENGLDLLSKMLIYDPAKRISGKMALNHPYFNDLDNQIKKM
row,Compound,IC50 [nM]
1,"CC(C)N1CNc2c(Nc3cccc(Cl)c3)nc(N[C@H]3Cc4ccccc4[C@H]3O)nc21 [6-(3-chloroanilino)-9-isopropylpurine core C2-substituent, 69]",5000
2,"COc1ccc(CNc2nc(N(CCO)CCCO)nc3c2NCN3C(C)C)cc1 [6-(4-methoxybenzylamino) core C2-substituent, 211]",250
3,"CC(C)[C@H](CO)Nc1nc(NCc2cccc(I)c2)c2c(n1)N(C(C)C)CN2 [2-(1 R-isopropyl-2-hydroxyethylamino)-9-isopropylpurine core C6-substituent, 112]",170
4,"CC(C)[C@H](CO)Nc1nc(Nc2ccccc2)c2c(n1)N(C(C)C)CN2 [2-(1 R-isopropyl-2-hydroxyethylamino)-9-isopropylpurine core C6-substituent, 78]",240
5,"CC(C)N1CNc2c(NCc3ccccc3)nc(N3CCCCC3CCO)nc21 (configuration not stated) [2-(2-hydroxyethylpiperidyl)-9-isopropylpurine core C6-substituent, 212]",160
6,"COc1ccc(CNc2nc(N3CCN(CCO)CC3)nc3c2NCN3C(C)C)cc1 [6-(4-methoxybenzylamino) core C2-substituent, 11]",7000
7,"CC(C)N1CNc2c(NCCNc3ccccc3)nc(N3CCCCC3CCO)nc21 (configuration not stated) [2-(2-hydroxyethylpiperidyl)-9-isopropylpurine core C6-substituent, 224]",1500
8,"COc1ccccc1Nc1nc(NCCO)nc2c1NCN2C(C)C [2-(2-hydroxyethylamino)-9-isopropylpurine core C6-substituents, 46]",9000
9,"COc1ccc(CNc2nc(N(C)CC(O)c3ccccc3)nc3c2NCN3C(C)C)cc1 (configuration not stated) [6-(4-methoxybenzylamino) core C2-substituent, 37]",1000
10,"CC(C)[C@H](CO)Nc1nc(Nc2ccc(O)c(C(=O)O)c2)c2c(n1)N(C(C)C)CN2 [2-(1 R-isopropyl-2-hydroxyethylamino)-9-isopropylpurine core C6-substituent, 94]",100
11,"CC(C)N1CNc2c(Nc3ccc4ccccc4c3)nc(NCCO)nc21 [2-(2-hydroxyethylamino)-9-isopropylpurine core C6-substituents, 47]",430
12,"CC(C)N1CNc2c(Nc3ccccc3)nc(N3CCCCC3CCO)nc21 (configuration not stated) [2-(2-hydroxyethylpiperidyl)-9-isopropylpurine core C6-substituent, 220]",130
13,"CC(C)[C@H](CO)Nc1nc(Nc2ccc(Cl)c(C(=O)O)c2)c2c(n1)N(C(C)C)CN2 [2-(1 R-isopropyl-2-hydroxyethylamino)-9-isopropylpurine core C6-substituent, 96]",30
14,CC(C)N1CNc2c(NCCC(c3ccccc3)c3ccccc3)nc(N3CCCCC3CCO)nc21 (configuration not stated),9000
15,"CCN(CCO)c1nc(NCc2ccc(OC)cc2)c2c(n1)N(C(C)C)CN2 [6-(4-methoxybenzylamino) core C2-substituent, 13]",1200
16,"COc1ccc(CNc2nc(N(CC(C)O)CC(C)O)nc3c2NCN3C(C)C)cc1 (configuration not stated) [6-(4-methoxybenzylamino) core C2-substituent, 16]",240
17,"CC(C)N1CNc2c(Nc3cccc(Cl)c3)nc(N[C@H](CO)c3ccccc3)nc21 [6-(3-chloroanilino)-9-isopropylpurine core C2-substituent, 59]",800
18,"CC(C)[C@H](CO)Nc1nc(Nc2ccc(Br)cc2)c2c(n1)N(C(C)C)CN2 [2-(1 R-isopropyl-2-hydroxyethylamino)-9-isopropylpurine core C6-substituent, 73]",40
19,"CC(C)N1CNc2c(NCc3cccc(C(F)(F)F)c3)nc(N3CCCCC3CCO)nc21 (configuration not stated) [2-(2-hydroxyethylpiperidyl)-9-isopropylpurine core C6-substituent, 222]",3000
20,"CCC(C)[C@@H](CO)Nc1nc(Nc2cccc(Cl)c2)c2c(n1)N(C(C)C)CN2 (some centres not stated) [6-(3-chloroanilino)-9-isopropylpurine core C2-substituent, 62]",500
21,"CC(C)N1CNc2c(Nc3cccc(Cl)c3)nc(NCCO)nc21 [2-(2-hydroxyethylamino)-9-isopropylpurine core C6-substituents, 52]",220
22,"CC(C)N1CNc2c(NCc3cccc(I)c3)nc(N3CCCCC3CCO)nc21 (configuration not stated) [2-(2-hydroxyethylpiperidyl)-9-isopropylpurine core C6-substituent, 113]",6000
23,"CC(C)N1CNc2c(NCc3ccc4ccccc4c3)nc(N3CCCCC3CCO)nc21 (configuration not stated) [2-(2-hydroxyethylpiperidyl)-9-isopropylpurine core C6-substituent, 226]",1200
24,"COc1ccc(CNc2nc(N3CCCCCC3)nc3c2NCN3C(C)C)cc1 [6-(4-methoxybenzylamino) core C2-substituent, 38]",4000
25,"COc1ccc(CNc2nc(N3CCN(C)CC3)nc3c2NCN3C(C)C)cc1 [6-(4-methoxybenzylamino) core C2-substituent, 12]",10800
26,"CC[C@H](CO)Nc1nc(Nc2cccc(Cl)c2)c2c(n1)N(C(C)C)CN2 [6-(3-chloroanilino)-9-isopropylpurine core C2-substituent, 307]",300
27,"COc1ccc(CNc2nc(NCC(O)CN)nc3c2NCN3C(C)C)cc1 (configuration not stated) [6-(4-methoxybenzylamino) core C2-substituent, 41]",1600

# The remaining lines, values ahead:
row,IC50 [nM],Compound
1,5000,"CC(C)N1CNc2c(Nc3cccc(Cl)c3)nc(N(CCO)Cc3ccccc3)nc21 [6-(3-chloroanilino)-9-isopropylpurine core C2-substituent, 302]"
2,5000,"COc1ccc(CNc2nc(N(CCN(C)C)Cc3ccccc3)nc3c2NCN3C(C)C)cc1 [6-(4-methoxybenzylamino) core C2-substituent, 40]"
3,> 10000,"CC(C)N1CNc2c(N(CCN(C)C)Cc3ccccc3)nc(N3CCCCC3CCO)nc21 (configuration not stated) [2-(2-hydroxyethylpiperidyl)-9-isopropylpurine core C6-substituent, 227]"
4,80,"CC(C)[C@H](CO)Nc1nc(Nc2ccc(Cl)cc2)c2c(n1)N(C(C)C)CN2 [2-(1 R-isopropyl-2-hydroxyethylamino)-9-isopropylpurine core C6-substituent, 356]"
5,210,"COc1ccc(CNc2nc(N3CCCCC3CCO)nc3c2NCN3C(C)C)cc1 (configuration not stated) [6-(4-methoxybenzylamino) core C2-substituent, 10]"
6,2800,"COc1ccc(CNc2nc(N(CCO)Cc3ccccc3)nc3c2NCN3C(C)C)cc1 [6-(4-methoxybenzylamino) core C2-substituent, 49]"
7,1300,"COc1ccc(CNc2nc(NCC(O)CO)nc3c2NCN3C(C)C)cc1 (configuration not stated) [6-(4-methoxybenzylamino) core C2-substituent, 15]"
8,> 10000,"Cc1ccc(CN(c2nc(Nc3cccc(Cl)c3)c3c(n2)N(C(C)C)CN3)[C@@H](O)C(C)C)cc1 [2-((1 R-isopropyl)-2-hydroxyethylamino)-6-(3-chloroanilino)-9-isopropylpurine core C2-substituent, 317]"
9,100,"COc1ccc(CNc2nc(N[C@@H](CO)CC(C)C)nc3c2NCN3C(C)C)cc1 [6-(4-methoxybenzylamino) core C2-substituent, 36]"
10,6500,"COc1ccc(CNc2nc(N3CCC(O)CC3)nc3c2NCN3C(C)C)cc1 [6-(4-methoxybenzylamino) core C2-substituent, 27]"
11,1300,"CCCCNc1nc(N2CCCCC2CCO)nc2c1NCN2C(C)C (configuration not stated) [2-(2-hydroxyethylpiperidyl)-9-isopropylpurine core C6-substituent, 219]"
12,700,"COc1ccc(CNc2nc(NCCO)nc3c2NCN3C(C)C)cc1 [6-(4-methoxybenzylamino) core C2-substituent, 118]"
13,500,"CC(C)N1CNc2c(Nc3cccc(Cl)c3)nc(N[C@H](CO)Cc3ccccc3)nc21 [6-(3-chloroanilino)-9-isopropylpurine core C2-substituent, 70]"
14,790,"CC(C)N1CNc2c(Nc3ccc(Cl)cc3)nc(N3CCCCC3CCO)nc21 (configuration not stated) [2-(2-hydroxyethylpiperidyl)-9-isopropylpurine core C6-substituent, 359]"
15,1200,"COc1ccc(CNc2nc(NCCCO)nc3c2NCN3C(C)C)cc1 [6-(4-methoxybenzylamino) core C2-substituent, 209]"
16,2800,"COc1ccc(CNc2nc(NCC(O)c3ccccc3)nc3c2NCN3C(C)C)cc1 (configuration not stated) [6-(4-methoxybenzylamino) core C2-substituent, 50]"
17,530,"CC(C)C[C@H](CO)Nc1nc(Nc2cccc(Cl)c2)c2c(n1)N(C(C)C)CN2 [6-(3-chloroanilino)-9-isopropylpurine core C2-substituent, 308]"
18,2300,"CC(C)N1CNc2c(Nc3cccc(Cl)c3)nc(N[C@H](CO)C(C)(C)C)nc21 [6-(3-chloroanilino)-9-isopropylpurine core C2-substituent, 61]"
19,350,"CC(O)CN(CC(C)O)c1nc(Nc2cccc(Cl)c2)c2c(n1)N(C(C)C)CN2 (configuration not stated) [6-(3-chloroanilino)-9-isopropylpurine core C2-substituent, 305]"
20,450,"COc1ccc(CNc2nc(NC3(CO)CCCC3)nc3c2NCN3C(C)C)cc1 [6-(4-methoxybenzylamino) core C2-substituent, 314]"
